Experimental data published in paper PMC11815855, “Exploring the Structure–Activity Relationships of Albumin-Targeted Picoplatin-Based Platinum(IV) Prodrugs” (Inorganic Chemistry, 2025).

What was measured:
[1] = Serum pharmacokinetics and tumor/organ distribution (Pt by ICP-MS) in CT26-bearing Balb/c mice; assay type: in vivo; conditions: single i.v. dose equimolar to 20 mg/kg picoplatin
Experimental: CT-26 cells (5 × 10^5 cells in 50 μL of serum-free medium) were subcutaneously injected into the right flank of male Balb/c mice. […]. […] and the three maleimide-containing platinum(IV) complexes were dissolved in 30% PEG400-containing 0.9% NaCl and PBS (Cytiva, USA), respectively. […]. After a 10 min clotting period of the blood at RT, the serum was separated by centrifugation (900 g, 10 min, repeated twice). Tumor and organ accumulation of the drug was assessed at 5 and 24 h postadministration (2 animals per time point). Mice were euthanized via cervical dislocation, and their tumors and organs were excised. All collected samples were stored at −20 °C until further processing for Pt concentration analysis by ICP-MS. […] Approximately 15–30 mg of tissue (gravimetrically measured) was digested with 2 mL of 20% nitric acid and 100 μL of H2O2 in an open-vessel graphite digestion system (Labter, ODLAB; AHF Analysentechnik AG, Germany), using PFA vials and lids. […] Quantification of total Pt content was performed on a quadrupole-based ICP-MS instrument (Agilent 7800, Agilent Technologies, Tokyo, Japan), equipped with an Agilent SPS 4 autosampler and a MicroMist nebulizer. […] Rh was used as the internal standard for Pt quantification. […]

CT26 tumors = assay: Anticancer activity in vivo, CT26-bearing Balb/c mice; conditions: i.v. on days 3 and 10, dose equimolar to 20 mg/kg picoplatin
Experimental: Ten-week-old Balb/c mice were purchased from Envigo Laboratories (San Pietro al Natisone, Italy). […] Animals were controlled for distress development every day, and tumor size was assessed regularly by caliper measurement. Tumor volume was calculated using the formula: (length × width^2)/2.
CT26 cells (5 × 10^5 in serum-free medium) were injected subcutaneously into the right flank of male Balb/c mice. Therapy was started when tumor nodules were palpable (day 3). […] Mice were sacrificed by cervical dislocation in the case of a tumor length >20 mm, tumor ulceration, or other signs for distress.

Which “platinum levels in the kidneys” value [1] does the source give for `CC(=O)[O][Pt]([Cl])([Cl])[O]C(=O)NCCN1C(=O)C=CC1=O.Cc1ccccn1.N` [Pico-Mal] here?
The value was “higher”.

What about the “impact on tumor growth” value (CT26 tumors) of the same compound?
The value was “inactive”.
